ChEMBL document CHEMBL3885881, “DrugMatrix”

Species on record: Rattus norvegicus
Experiment: DrugMatrix - Regimen: Daily Repeat
Format: toxicity, organism-based, Sprague-Dawley
Parameters: regimen Daily Repeat, gender Male, age 6-8 weeks
Conditions: in vivo, po, route oral GAVAGE, vehicle .5 % CMC; for ABSOLUTE BASOPHIL / ABSOLUTE EOSINOPHIL / ABSOLUTE LYMPHOCYTE / ABSOLUTE MONOCYTE / ABSOLUTE SEGMENTED NEUTROPHIL / BASOPHIL / EOSINOPHIL / ERYTHROCYTE COUNT / HEMATOCRIT / HEMOGLOBIN / LEUKOCYTE COUNT / LYMPHOCYTE / MEAN CORPUSCULAR HEMOGLOBIN / MEAN CORPUSCULAR HEMOGLOBIN CONCENTRATION / MEAN CORPUSCULAR VOLUME / MONOCYTE / NEUTROPHIL / NUCLEATED RED BLOOD CELLS / PLATELET COUNT: tissue Blood; for ALANINE AMINOTRANSFERASE / ALBUMIN / ALKALINE PHOSPHATASE / ASPARTATE AMINOTRANSFERASE / BLOOD UREA NITROGEN / CARBON DIOXIDE / CHLORIDE / CHOLESTEROL / CREATINE PHOSPHOKINASE / CREATININE / GLUCOSE / LACTATE DEHYDROGENASE / LIPASE / PHOSPHORUS / POTASSIUM / SODIUM / TOTAL BILIRUBIN / TOTAL PROTEIN / URIC ACID: tissue Plasma
[1] = 10 mg/kg, 72 h, dose level Low, time 3 day
[2] = 10 mg/kg, 120 h, dose level Low, time 5 day
[3] = 1500 mg/kg, 72 h, dose level High, time 3 day
[4] = 1500 mg/kg, 120 h, dose level High, time 5 day

Cc1ccc(S(=O)(=O)NC(=O)NN2CC3CCCC3C2)cc1 (configuration not stated) [GLICLAZIDE]
ABSOLUTE BASOPHIL [1]: 0 CELLS/uL
ABSOLUTE EOSINOPHIL [1]: 0 CELLS/uL
ABSOLUTE LYMPHOCYTE [1]: 14055.67 CELLS/uL
ABSOLUTE MONOCYTE [1]: 174.33 CELLS/uL
ABSOLUTE SEGMENTED NEUTROPHIL [1]: 3203.33 CELLS/uL
BASOPHIL [1]: 0%
EOSINOPHIL [1]: 0%
ERYTHROCYTE COUNT [1]: 5.24 x10E6/uL
HEMATOCRIT [1]: 35.87%
HEMOGLOBIN [1]: 13.1 G/DL
LEUKOCYTE COUNT [1]: 17.43 x10E3/uL
LYMPHOCYTE [1]: 80.33%
MEAN CORPUSCULAR HEMOGLOBIN [1]: 25.37 pg
MEAN CORPUSCULAR HEMOGLOBIN CONCENTRATION [1]: 36.67 G/DL
MEAN CORPUSCULAR VOLUME [1]: 70.43 fL
MONOCYTE [1]: 1%
NEUTROPHIL [1]: 18.67%
NUCLEATED RED BLOOD CELLS [1]: 7 /100WBC
PLATELET COUNT [1]: 1164.33 x10E3/uL
ALANINE AMINOTRANSFERASE [1]: 49.67 u/L
ALBUMIN [1]: 4.1 G/DL
ALKALINE PHOSPHATASE [1]: 346.33 u/L
ASPARTATE AMINOTRANSFERASE [1]: 96.67 u/L
BLOOD UREA NITROGEN [1]: 16 mg/dL
CARBON DIOXIDE [1]: 25 mmol/L
CHLORIDE [1]: 100.33 MEQ/L
CHOLESTEROL [1]: 66.67 mg/dL
CREATINE PHOSPHOKINASE [1]: 653 u/L
CREATININE [1]: 0.19 mg/dL
GLUCOSE [1]: 179.33 mg/dL
LACTATE DEHYDROGENASE [1]: 157.33 u/L
LIPASE [1]: 10 u/L
PHOSPHORUS [1]: 13.27 mg/dL
POTASSIUM [1]: 6.4 MEQ/L
SODIUM [1]: 142.3 MEQ/L
TOTAL BILIRUBIN [1]: 0.27 mg/dL
TOTAL PROTEIN [1]: 5.77 G/DL
URIC ACID [1]: 2.23 mg/dL
ABSOLUTE BASOPHIL [2]: 0 CELLS/uL
ABSOLUTE EOSINOPHIL [2]: 0 CELLS/uL
ABSOLUTE LYMPHOCYTE [2]: 12400.33 CELLS/uL
ABSOLUTE MONOCYTE [2]: 0 CELLS/uL
ABSOLUTE SEGMENTED NEUTROPHIL [2]: 2133 CELLS/uL
BASOPHIL [2]: 0%
EOSINOPHIL [2]: 0%
ERYTHROCYTE COUNT [2]: 5.84 x10E6/uL
HEMATOCRIT [2]: 35.33%
HEMOGLOBIN [2]: 14.07 G/DL
LEUKOCYTE COUNT [2]: 14.53 x10E3/uL
LYMPHOCYTE [2]: 86%
MEAN CORPUSCULAR HEMOGLOBIN [2]: 24.13 pg
MEAN CORPUSCULAR HEMOGLOBIN CONCENTRATION [2]: 39.8 G/DL
MEAN CORPUSCULAR VOLUME [2]: 60.6 fL
MONOCYTE [2]: 0%
NEUTROPHIL [2]: 14%
NUCLEATED RED BLOOD CELLS [2]: 0 /100WBC
PLATELET COUNT [2]: 1074.33 x10E3/uL
ALANINE AMINOTRANSFERASE [2]: 49 u/L
ALBUMIN [2]: 4.23 G/DL
ALKALINE PHOSPHATASE [2]: 441 u/L
ASPARTATE AMINOTRANSFERASE [2]: 113.67 u/L
BLOOD UREA NITROGEN [2]: 15.33 mg/dL
CARBON DIOXIDE [2]: 25 mmol/L
CHLORIDE [2]: 101.33 MEQ/L
CHOLESTEROL [2]: 63.33 mg/dL
CREATINE PHOSPHOKINASE [2]: 738.33 u/L
CREATININE [2]: 0.19 mg/dL
GLUCOSE [2]: 153.67 mg/dL
LACTATE DEHYDROGENASE [2]: 958 u/L
LIPASE [2]: 9 u/L
PHOSPHORUS [2]: 11.2 mg/dL
POTASSIUM [2]: 6.16 MEQ/L
SODIUM [2]: 141.57 MEQ/L
TOTAL BILIRUBIN [2]: 0.2 mg/dL
TOTAL PROTEIN [2]: 5.97 G/DL
URIC ACID [2]: 1.43 mg/dL
ABSOLUTE BASOPHIL [3]: 0 CELLS/uL
ABSOLUTE EOSINOPHIL [3]: 66 CELLS/uL
ABSOLUTE LYMPHOCYTE [3]: 14884.33 CELLS/uL
ABSOLUTE MONOCYTE [3]: 365.67 CELLS/uL
ABSOLUTE SEGMENTED NEUTROPHIL [3]: 2117.33 CELLS/uL
BASOPHIL [3]: 0%
EOSINOPHIL [3]: 0.33%
ERYTHROCYTE COUNT [3]: 6.45 x10E6/uL
HEMATOCRIT [3]: 39.57%
HEMOGLOBIN [3]: 15.77 G/DL
LEUKOCYTE COUNT [3]: 17.43 x10E3/uL
LYMPHOCYTE [3]: 85.33%
MEAN CORPUSCULAR HEMOGLOBIN [3]: 24.4 pg
MEAN CORPUSCULAR HEMOGLOBIN CONCENTRATION [3]: 39.83 G/DL
MEAN CORPUSCULAR VOLUME [3]: 61.27 fL
MONOCYTE [3]: 2%
NEUTROPHIL [3]: 12.33%
NUCLEATED RED BLOOD CELLS [3]: 0 /100WBC
PLATELET COUNT [3]: 1204.33 x10E3/uL
ALANINE AMINOTRANSFERASE [3]: 29 u/L
ALBUMIN [3]: 4.03 G/DL
ALKALINE PHOSPHATASE [3]: 337.33 u/L
ASPARTATE AMINOTRANSFERASE [3]: 85.67 u/L
BLOOD UREA NITROGEN [3]: 17.33 mg/dL
CARBON DIOXIDE [3]: 26.33 mmol/L
CHLORIDE [3]: 100.67 MEQ/L
CHOLESTEROL [3]: 39.33 mg/dL
CREATINE PHOSPHOKINASE [3]: 319 u/L
CREATININE [3]: 0.14 mg/dL
GLUCOSE [3]: 104.67 mg/dL
LACTATE DEHYDROGENASE [3]: 118.33 u/L
LIPASE [3]: 8.67 u/L
PHOSPHORUS [3]: 11.03 mg/dL
POTASSIUM [3]: 6.27 MEQ/L
SODIUM [3]: 141.67 MEQ/L
TOTAL BILIRUBIN [3]: 0.13 mg/dL
TOTAL PROTEIN [3]: 5.43 G/DL
URIC ACID [3]: 2.57 mg/dL
ABSOLUTE BASOPHIL [4]: 0 CELLS/uL
ABSOLUTE EOSINOPHIL [4]: 0 CELLS/uL
ABSOLUTE LYMPHOCYTE [4]: 11101.33 CELLS/uL
ABSOLUTE MONOCYTE [4]: 80.33 CELLS/uL
ABSOLUTE SEGMENTED NEUTROPHIL [4]: 1151.67 CELLS/uL
BASOPHIL [4]: 0%
EOSINOPHIL [4]: 0%
ERYTHROCYTE COUNT [4]: 6.29 x10E6/uL
HEMATOCRIT [4]: 37%
HEMOGLOBIN [4]: 14.7 G/DL
LEUKOCYTE COUNT [4]: 12.33 x10E3/uL
LYMPHOCYTE [4]: 90%
MEAN CORPUSCULAR HEMOGLOBIN [4]: 23.4 pg
MEAN CORPUSCULAR HEMOGLOBIN CONCENTRATION [4]: 39.8 G/DL
MEAN CORPUSCULAR VOLUME [4]: 58.83 fL
MONOCYTE [4]: 0.67%
NEUTROPHIL [4]: 9.33%
NUCLEATED RED BLOOD CELLS [4]: 0 /100WBC
PLATELET COUNT [4]: 1131.67 x10E3/uL
ALANINE AMINOTRANSFERASE [4]: 46 u/L
ALBUMIN [4]: 4.17 G/DL
ALKALINE PHOSPHATASE [4]: 318 u/L
ASPARTATE AMINOTRANSFERASE [4]: 93 u/L
BLOOD UREA NITROGEN [4]: 21.33 mg/dL
CARBON DIOXIDE [4]: 23.33 mmol/L
CHLORIDE [4]: 103.67 MEQ/L
CHOLESTEROL [4]: 44.67 mg/dL
CREATINE PHOSPHOKINASE [4]: 248.33 u/L
CREATININE [4]: 0.18 mg/dL
GLUCOSE [4]: 101.67 mg/dL
LACTATE DEHYDROGENASE [4]: 168.33 u/L
LIPASE [4]: 10 u/L
PHOSPHORUS [4]: 10.43 mg/dL
POTASSIUM [4]: 6.21 MEQ/L
SODIUM [4]: 144.47 MEQ/L
TOTAL BILIRUBIN [4]: 0.1 mg/dL
TOTAL PROTEIN [4]: 5.7 G/DL
URIC ACID [4]: 1.7 mg/dL
